Converted amounts (≈) assume the structure as drawn. Read-outs that look alike come from different tables or passages of the source.

Among the data in patent US6194434A, “Cycloalkylaminomethylpyrrolidine derivatives” (Daiichi Pharmaceutical Co., Ltd., priority 1996, dated 2001) are MIC values, retold here.

Experiment in all cases: Antimicrobial activity (MIC), standard method of the Japan Chemotherapeutic Society
Common to all, as to format: cell-based

The subject of one experiment is S. aureus, 209P. From the text: (§1) The antimicrobial activity of the compounds obtained in Examples 1 to 3 was examined in accordance with the standard method specified by the Japan Chemotherapeutic Society.
The test system of experiment [1] is Ps. maltophilia, IID-1275.
Description: as §1

A further experiment concerns E. coli, NIHJ.
Description: as §1

A further experiment relates to S. epidermidis, 56500.
Description: as §1

In a further experiment the test system is Ser. marcescens, 10100.
Description: as §1

In experiment [2] the test system is Str. faecalis, ATCC-19433.
Description: as §1

A further experiment deals with Ps. aeruginosa, 32121.
Description: as §1

In another experiment the test system is S. flexneli, 2A 5503.
Description: as §1

In another experiment the test system is S. aureaus, 870307.
Description: as §1

In the next experiment the test system is Pr. mirabilis, IFO-3849.
Description: as §1

The test system of another experiment is Str. pyrogenes, G-36.
Description: as §1

Another experiment has as its system Pr. vulgaris, 08601.
Description: as §1

A further experiment deals with Ps. aeruginosa, 32104.
Description: as §1

Where [3] appears, read: Pseudomonas aeruginosa, read-out: MIC.

What is called MIC is the smallest concentration in the dilution series that meets the test's criterion for growth inhibition. With `Cc1c(N2CC[C@H](CNC3CC3)C2)c(F)cc2c(=O)c(C(=O)O)cn([C@@H]3C[C@@H]3F)c12` [Example 1, 7-[3-(R)-Cyclopropylaminomethyl-1-pyrrolidinyl]-6-fluoro-1-[(1R,2S)-2-fluorocyclopropyl]-1,4-dihydro-8-methyl-4-oxoquinoline-3-carboxylic Acid], the MIC with S. aureus, 209P (Staphylococcus aureus, read-out: MIC) is ≤ 3 ng/mL; in experiment [1] (Stenotrophomonas maltophilia, IID1275, read-out: MIC), 0.05 µg/mL (≈ 0.12 µM); with E. coli, NIHJ (Escherichia coli, read-out: MIC) it was ≤ 3 ng/mL; in the experiment with S. epidermidis, 56500 (Staphylococcus epidermidis, read-out: MIC), 0.013 µg/mL (≈ 0.0311 µM); in the experiment with Ser. marcescens, 10100 (Serratia marcescens, read-out: MIC) it was 0.1 µg/mL (≈ 0.24 µM); in [2] (Enterococcus faecalis, ATCC19433, read-out: MIC), 0.025 µg/mL (≈ 0.0599 µM). The MIC with Ps. aeruginosa, 32121 (setting [3]) came out at 0.1 µg/mL (≈ 0.24 µM); in the experiment with S. flexneli, 2A 5503, 6 ng/mL (≈ 0.0144 µM); with S. aureaus, 870307 (read-out: MIC), 0.025 µg/mL (≈ 0.0599 µM); in the experiment on Pr. mirabilis, IFO-3849 (Proteus mirabilis, IFO3849, read-out: MIC) it was 0.025 µg/mL (≈ 0.0599 µM); with Str. pyrogenes, G-36 (read-out: MIC) it was 0.013 µg/mL (≈ 0.0311 µM); with Pr. vulgaris, 08601 (Proteus vulgaris, read-out: MIC), 0.006 µg/mL (≈ 0.0144 µM). Besides, the MIC with Ps. aeruginosa, 32104 (setting [3]) came to 0.2 µg/mL (≈ 0.479 µM).
As for `COc1c(N2CC[C@H](CNC3CC3)C2)c(F)c(N)c2c(=O)c(C(=O)O)cn([C@@H]3C[C@@H]3F)c12` [Example 2, 5-Amino-7-[3-(R)-(N-cyclopropylaminomethyl)-1-pyrrolidinyl]-6-fluoro-1-[(1R,2S)-2-fluorocyclopropyl]-1,4-dihydro-8-methoxy-4-oxocquinoline-3-carboxylic Acid], the minimum inhibitory concentration (MIC) with S. aureus, 209P is ≤ 3 ng/mL; in [1] it was 0.20 µg/mL (≈ 0.446 µM); against E. coli, NIHJ it was 6 ng/mL (≈ 0.0134 µM); with S. epidermidis, 56500, 0.013 µg/mL (≈ 0.029 µM); in the experiment with Ser. marcescens, 10100, 0.39 µg/mL (≈ 0.87 µM); in experiment [2], 0.10 µg/mL (≈ 0.223 µM). Besides, the minimum inhibitory concentration (MIC) turned out to be 0.78 µg/mL (≈ 1.74 µM) in the experiment with Ps. aeruginosa, 32121; 13 ng/mL (≈ 0.029 µM) in the experiment on S. flexneli, 2A 5503 (S. flexneli, 2A 5503); 0.05 µg/mL (≈ 0.111 µM) in the experiment on S. aureaus, 870307; 0.20 µg/mL (≈ 0.446 µM) in the experiment with Pr. mirabilis, IFO-3849; 0.025 µg/mL (≈ 0.0557 µM) in the experiment with Str. pyrogenes, G-36; 0.10 µg/mL (≈ 0.223 µM) against Pr. vulgaris, 08601. The compound further returned an MIC in the experiment with Ps. aeruginosa, 32104 of 0.78 µg/mL (≈ 1.74 µM).
`Cc1c(N2CC[C@H](CNC3CC3)C2)c(F)c(N)c2c(=O)c(C(=O)O)cn([C@@H]3C[C@@H]3F)c12.Cl` [Example 3, 5-Amino-7-[(3R)-N-cyclopropylaminomethyl-1-pyrrolidinyl]-6-fluoro-1-[(1R,2S)-2-fluorocyclopropyl]-1,4-dihydro-8-methyl-4-oxoquinoline-3-carboxylic Acid Hydrochloride]: the MIC against S. aureus, 209P was ≤ 3 ng/mL; in experiment [1], 0.10 µg/mL; with E. coli, NIHJ, 6 ng/mL; in the experiment on S. epidermidis, 56500, 0.006 µg/mL; against Ser. marcescens, 10100 it was 0.20 µg/mL; in [2], 0.05 µg/mL. In addition, the MIC stood at 0.20 µg/mL with Ps. aeruginosa, 32121; 6 ng/mL in the experiment with S. flexneli, 2A 5503 (S. flexneli, 2A 5503); 0.025 µg/mL with S. aureaus, 870307; 0.10 µg/mL in the experiment on Pr. mirabilis, IFO-3849; 0.013 µg/mL in the experiment on Str. pyrogenes, G-36; 0.05 µg/mL with Pr. vulgaris, 08601. In the experiment with Ps. aeruginosa, 32104, this compound displayed a minimal inhibitory concentration (MIC) of 0.39 µg/mL.
